Test: Concentration required to inhibit human Cytosolic phospholipase A2

IC50	SMILES
420 nM	CCCCC/C=C\C/C=C\C/C=C\C/C=C\CCCC(=O)C(F)(F)F [Arachidonyltrifluoromethane]
165 nM	O=C1N=C(O)SC1=Cc1ccc(C(=O)NC[C@@H]2C[C@@H](OCc3ccccc3-c3ccccc3)CN2C(=O)c2ccccc2C(=O)c2ccccc2)cc1 [N-[(2S,4R)-1-(2-Benzoyl-benzoyl)-4-(biphenyl-2-ylmethoxy)-pyrrolidin-2-ylmethyl]-4-[2,4-dioxo-thiazolidin-(5Z)-ylidenemethyl]-benzamide]
4.2 nM	O=C1N=C(O)SC1=Cc1ccc(C(=O)NC[C@@H]2C[C@@H](S(c3ccccc3)(c3ccccc3)c3ccccc3)CN2C(=O)c2ccccc2C(=O)c2ccc(F)cc2F)cc1 [N-[(2S,4R)-1-[2-(2,4-Difluoro-benzoyl)-benzoyl]-4-(triphenyl-lambda*4*-sulfanyl)-pyrrolidin-2-ylmethyl]-4-[2,4-dioxo-thiazolidin-(5Z)-ylidenemethyl]-benzamide]
